Values joined by “and” are separate entries in the source; they are usually repeats but may differ in a detail not shown here. Identical values can stand only once.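 Five compound concentrations were applied to cells in 96-well plates for 48 hours; endpoints were derived by simple linear interpolation of the resulting dose-response curve. GI50 is the concentration that inhibits growth by half. At the TGI there is no net growth.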
How the values were obtained:
Assay in all cases: DTP human tumour cell line panel, 48 h
[1] = tested on: K-562 leukemia
[2] = tested on: OVCAR-5 ovarian
[3] = tested on: SN12C renal
[4] = tested on: A549 NSCLC
[5] = tested on: RPMI-8226 leukemia
[6] = tested on: SK-OV-3 ovarian
[7] = tested on: HT29 colon
[8] = tested on: EKVX NSCLC
[9] = tested on: HCT-116 colon
[10] = tested on: U251 CNS

| Compound | GI50 [1] | TGI [1] | GI50 [2] | TGI [2] | GI50 [3] | TGI [3] | GI50 [4] | TGI [4] | GI50 [5] | TGI [5] | GI50 [6] | TGI [6] | GI50 [7] | TGI [7] | GI50 [8] | TGI [8] | GI50 [9] | TGI [9] | GI50 [10] | TGI [10] |
| --- | --- | --- | --- | --- | --- | --- | --- | --- | --- | --- | --- | --- | --- | --- | --- | --- | --- | --- | --- | --- |
| Cc1ccc(S(=O)(=O)NC(CCC(=O)Nc2ccc(Cl)cc2)C(=O)Nc2ccc(Cl)cc2)cc1 (centres undefined) | 0.0519 µM | 6.3 µM | 4.31 µM | 11.4 µM | 0.685 µM | 8.84 µM | 0.178 µM | 6.72 µM | 0.826 µM | 7.43 µM | 0.869 µM | 4.36 µM | 1.35 µM | 9.85 µM | 2.01 µM | 9.31 µM | 0.139 µM | 7.05 µM | 0.574 µM | 5.13 µM |
| O=[N+]([O-])c1ccc(N/N=C\c2cc(Cl)ccc2O)nc1 | 2.09 µM | > 100 µM | 8.88 µM | > 100 µM | 2.99 µM | > 100 µM | 2.79 µM | 16.1 µM | 0.987 µM | > 100 µM | 4.25 µM | 37.3 µM | 4.9 µM | > 100 µM | 8.05 µM | > 100 µM | 1.2 µM | 12.5 µM | 0.51 µM | 12.1 µM |
| CC(=O)Oc1c(C)n(CCCl)ccc1=O |  | > 100 µM |  | > 100 µM |  | > 100 µM |  | > 100 µM |  | > 100 µM |  | > 100 µM |  | > 100 µM |  | > 100 µM |  | > 100 µM |  | > 100 µM |
| O=C(Cc1ccccc1)NN1C(=O)C(Cl)C1c1cccc(O)c1 (centres undefined) |  | 34.7 µM |  | 27.5 µM |  | 33.4 µM |  | 59.8 µM |  | 10.1 µM |  | 80.5 µM |  | 31.1 µM |  | 45.7 µM |  | 28.9 µM |  | 24.4 µM |
| CCCCN(CCCC)C(=O)C(=O)CC(=O)c1ccc(Br)cc1 |  | > 100 µM |  | > 100 µM |  | > 100 µM |  | > 100 µM |  | > 100 µM |  | > 100 µM |  | > 100 µM |  | > 100 µM |  | > 100 µM |  | > 100 µM |
| COc1ccc(N(C)c2nc(C)nc3ccccc23)cc1 | < 0.01 µM | > 100 µM | < 0.01 µM | > 100 µM | < 0.01 µM | > 100 µM | < 0.01 µM | > 100 µM | < 0.01 µM | 18 µM | < 0.01 µM | > 26.1 µM | < 0.01 µM |  | < 0.01 µM | 40.8 µM | < 0.01 µM | > 36 µM | < 0.01 µM | > 100 µM |
| O=C1c2ccccc2-c2c1c1ccccc1c(=O)n2CCO |  | > 100 µM |  | > 100 µM |  | > 100 µM |  | > 100 µM |  | > 100 µM |  | > 100 µM |  | > 100 µM |  | > 100 µM |  | > 79.3 µM |  | > 100 µM |
| O/N=C1\CCc2cc(-c3nc(C4CCNCC4)[nH]c3-c3ccncc3)ccc21 | > 25 µM | > 25 µM | > 25 µM | > 25 µM | > 25 µM | > 25 µM | > 25 µM | > 25 µM | > 25 µM | > 25 µM | > 25 µM | > 25 µM | > 16.4 µM | > 25 µM | > 25 µM | > 25 µM | > 25 µM | > 25 µM | > 25 µM | > 25 µM |
| O=C1C=C[C@]2(C[C@@H](c3cccc(C(F)(F)F)c3)O[C@@H](c3cccc(C(F)(F)F)c3)O2)O1 | 2.68 µM | > 100 µM | 7.76 µM | 26.1 µM | 2.91 µM | 12.4 µM | 5.57 µM | 20.4 µM | 1.12 µM | 5.97 µM | 14.4 µM | 28.1 µM | 2.12 µM | 5.52 µM | 12.9 µM | 27.7 µM | 1.08 µM | 2.64 µM | 2.58 µM | 12.9 µM |
| CCOC(=O)/N=c1\ss/c(=N\C(=S)N(C)C)n1-c1ccccc1 |  | > 100 µM |  | > 100 µM | > 100 µM | > 100 µM | > 100 µM | > 100 µM | > 100 µM | > 100 µM | > 100 µM | > 100 µM |  | > 100 µM |  | > 100 µM | > 100 µM | > 100 µM |  | 71.3 µM |
| COc1cc(CCc2cc(NC(=O)c3ccc(N4C[C@@H](C)N[C@@H](C)C4)cc3)n[nH]2)cc(OC)c1 | 6.89 µM and 4.18 µM | > 10 µM and 15.8 µM | > 10 µM and 5.01 µM | > 10 µM and 16.9 µM | 6.39 µM and 3.31 µM | > 10 µM and 15.7 µM | > 10 µM and 3.9 µM | > 10 µM and 15.3 µM | 4.82 µM and 4.65 µM | > 10 µM and 19.6 µM | 9.23 µM and 7.04 µM | > 10 µM and 19.3 µM | 3.86 µM and 3.33 µM | > 10 µM and 13.3 µM | > 10 µM | > 10 µM | 3.79 µM and 3.49 µM | > 10 µM and 13.1 µM | > 10 µM and 3.86 µM | > 10 µM and 18 µM |
| N#C/C(=C\c1c(-c2ccccc2)[nH]c2ccccc12)C(=O)c1ccc(Cl)cc1 | 0.336 µM | 5.32 µM | 8.58 µM | 46.9 µM | 6.91 µM | > 78.7 µM | 8.44 µM | > 68.8 µM | 1.32 µM | 20 µM | 3.02 µM | 14.8 µM | 0.476 µM | 21.4 µM | 5.51 µM | > 100 µM | 0.68 µM | 23.9 µM | 1.11 µM | 16.2 µM |
